Paper PMC10321442 (Preventive Nutrition and Food Science, 2023)

Molecular target: α-amylase (Aspergillus oryzae, UniProt P0C1B3)
Assay: amylose hydrolysis inhibition at […], peroxidase-glucose oxidase readout
Type: biochemical
Conditions: read-out: % inhibition at 0.50 mM

- inhibition at 500 µM: 12.7 ± 1.11%
SMILES: COc1cc(/C=C/C(=O)O[C@H]2CC[C@]34C[C@]35CC[C@]3(C)[C@@H]([C@H](C)CCC=C(C)C)CC[C@@]3(C)[C@@H]5CC[C@H]4C2(C)C)ccc1O [Cycloartenyl ferulate]
